Activity calls are given as the source filed them. The rule behind the calls is not given here.
Legend:
SH-SY5Y = test: Neuroprotective activity against oxygen glucose deprivation/reperfusion-induced cell death in human SH-SY5Y cells assessed as cell viability at 3 uM […] by CCK8 assay relative to control; type: functional
[1] = AUC (0 to infinitive) in C57BL/6 mouse plasma at 100 mg/kg, IG by LC-MS/MS analysis; type: ADME, organism-based; design: route […], time infinity, dose 100 mg/kg; details: po
[2] = Toxicity in C57BL/6 mouse assessed as adverse effect at 100 mg/kg, IG; type: organism-based; details: in vivo, po
[3] = Half life in C57BL/6 mouse plasma at 0.3 mg/kg, iv by LC-MS/MS analysis; type: ADME, organism-based
[4] = Cmax in C57BL/6 mouse plasma at 1 mg/kg, iv by LC-MS/MS analysis; type: ADME, organism-based; design: route intravenous, dose 1 mg/kg
[5] = AUC (0 to infinitive) in C57BL/6 mouse plasma at 10 mg/kg, IG by LC-MS/MS analysis; type: ADME, organism-based; design: route […], time infinity, dose 10 mg/kg; details: po
[6] = Clearance in C57BL/6 mouse plasma at 0.3 mg/kg, iv by LC-MS/MS analysis; type: ADME, organism-based
[7] = Clearance in C57BL/6 mouse plasma at 10 mg/kg, IG by LC-MS/MS analysis; type: ADME, organism-based; details: po
[8] = Oral bioavailability in C57BL/6 mouse plasma at 0.3 mg/kg, IG by LC-MS/MS analysis; type: ADME, organism-based
Mus musculus [9] = test: Neuroprotective activity in mouse model of transient middle cerebral artery occlusion-induced cerebral ischemia-reperfusion injury assessed as reduction in infarct volume at 0.3 mg/kg, iv treated for 3 hrs after onset of reperfusion by TTC staining based assay (reference value: 52 +/- 1.7%); type: functional; design: scale not given: the % may be the effect or the level left
Mus musculus [10] = test: Neuroprotective activity in mouse model of transient middle cerebral artery occlusion-induced cerebral ischemia-reperfusion injury assessed as reduction neurological score at 1 mg/kg, iv treated for 3 hrs after onset of reperfusion by TTC staining based assay relative to control; type: functional, organism-based

O=C(/C=C/c1ccc(-c2cccc(C(F)(F)F)c2)cc1)Nc1ccccc1C(=O)O
Activity (SH-SY5Y): Active | AUC(0-inf) [1]: 1870 µg·h/mL | Activity [2]: Non-Toxic | half-life [3]: 55.8 min | Cmax [4]: 13000 ng/mL | AUC(0-inf) [5]: 160 µg·h/mL | clearance [6]: 0.917 mL/min/kg | CL/F [7]: 1.04 mL/min/kg | bioavailability [8]: 90.4% | Activity (Mus musculus [9]): 39.8% | Activity (Mus musculus [10]): inactive
